System: A375 multi-cell spheroids with HUVEC/MSC, viability
Experiment: Anticancer human tumor A375 cell line growth inhibition [GQUAD];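 further: spheroids exposed to compounds for seven days before readout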
Settings: for IC50: curve of first compound; for viability, T/C: stronger effect = lower value
How it was run: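 Multi-cell-type spheroids of tumor cells with HUVEC and mesenchymal stem cells, treated with drug combinations. Concentrations descend in half-log steps from near clinical Cmax, or from 10 microM where Cmax is unknown; viability read-out.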

[1] = second compound 0.0316 µM, first compound 0.0316 µM
[2] = second compound 0.0316 µM, first compound 0.316 µM
[3] = second compound 0.1 µM, first compound 0.0316 µM
[4] = second compound 0.1 µM, first compound 0.316 µM
[5] = second compound 0.316 µM, first compound 0.0316 µM
[6] = second compound 0.316 µM, first compound 0.316 µM
[7] = second compound 1 µM, first compound 0.0316 µM
[8] = second compound 1 µM, first compound 0.316 µM
[9] = second compound 3.16 µM, first compound 0.0316 µM
[10] = second compound 3.16 µM, first compound 0.316 µM
[11] = second compound 10 µM, first compound 0.0316 µM
[12] = second compound 10 µM, first compound 0.316 µM
[13] = second compound 0.0316 µM, first compound 0.000999 µM
[14] = second compound 0.0316 µM, first compound 0.00316 µM
[15] = second compound 0.0316 µM, first compound 0.00999 µM
[16] = second compound 0.0316 µM, first compound 0.0999 µM
[17] = second compound 0.1 µM, first compound 0.000999 µM
[18] = second compound 0.1 µM, first compound 0.00316 µM
[19] = second compound 0.1 µM, first compound 0.00999 µM
[20] = second compound 0.1 µM, first compound 0.0999 µM
[21] = second compound 0.316 µM, first compound 0.000999 µM
[22] = second compound 0.316 µM, first compound 0.00316 µM
[23] = second compound 0.316 µM, first compound 0.00999 µM
[24] = second compound 0.316 µM, first compound 0.0999 µM
[25] = second compound 1 µM, first compound 0.000999 µM
[26] = second compound 1 µM, first compound 0.00316 µM
[27] = second compound 1 µM, first compound 0.00999 µM
[28] = second compound 1 µM, first compound 0.0999 µM
[29] = second compound 3.16 µM, first compound 0.000999 µM
[30] = second compound 3.16 µM, first compound 0.00316 µM
[31] = second compound 3.16 µM, first compound 0.00999 µM
[32] = second compound 3.16 µM, first compound 0.0999 µM
[33] = second compound 10 µM, first compound 0.000999 µM
[34] = second compound 10 µM, first compound 0.00316 µM
[35] = second compound 10 µM, first compound 0.00999 µM
[36] = second compound 10 µM, first compound 0.0999 µM

`CC(C)n1c(=O)n(C)c2cnc3cc(F)c(-c4ccc(OCCCN5CCCCC5)nc4)cc3c21` + Cc1cnc(CNC(=O)c2c(=O)c3ccc(N4CCCN(C)CC4)nc3n3c2sc2ccccc23)cn1 gave an IC50 (second compound 0.0316 µM) greater than 10000 nM, an IC50 (second compound 0.1 µM) greater than 10000 nM and an IC50 (second compound 0.316 µM) of 778 nM. For the same compound, the IC50 (second compound 1 µM) was 85.3 nM, the IC50 (second compound 3.16 µM) was less than 31.6 nM and the IC50 (second compound 10 µM) was less than 31.6 nM. The viability, T/C [1] was 108%, the viability, T/C (second compound 0.0316 µM, first compound 0.1 µM) was 90.5% and the viability, T/C [2] was 98.4%. It also gave a viability, T/C (second compound 0.0316 µM, first compound 1 µM) of 82.2%, a viability, T/C (second compound 0.0316 µM, first compound 3.16 µM) of 72.5% and a viability, T/C (second compound 0.0316 µM, first compound 10 µM) of 58.7%. It also gave a viability, T/C [3] of 77.6%, a viability, T/C (second compound 0.1 µM, first compound 0.1 µM) of 64.2% and a viability, T/C [4] of 74.2%. For the same compound, the viability, T/C (second compound 0.1 µM, first compound 1 µM) was 63.4%, the viability, T/C (second compound 0.1 µM, first compound 3.16 µM) was 55.5% and the viability, T/C (second compound 0.1 µM, first compound 10 µM) was 50.7%. It also gave a viability, T/C [5] of 60.5%, a viability, T/C (second compound 0.316 µM, first compound 0.1 µM) of 53.1% and a viability, T/C [6] of 53%. The viability, T/C (second compound 0.316 µM, first compound 1 µM) was 49.8%, the viability, T/C (second compound 0.316 µM, first compound 3.16 µM) was 45.6% and the viability, T/C (second compound 0.316 µM, first compound 10 µM) was 37.6%. It also gave a viability, T/C [7] of 56%, a viability, T/C (second compound 1 µM, first compound 0.1 µM) of 47.4% and a viability, T/C [8] of 40.4%. It also gave a viability, T/C (second compound 1 µM, first compound 1 µM) of 45.2%, a viability, T/C (second compound 1 µM, first compound 3.16 µM) of 40.3% and a viability, T/C (second compound 1 µM, first compound 10 µM) of 30.5%. The viability, T/C [9] was 43.7%, the viability, T/C (second compound 3.16 µM, first compound 0.1 µM) was 41.9% and the viability, T/C [10] was 40%. It also gave a viability, T/C (second compound 3.16 µM, first compound 1 µM) of 36.8%, a viability, T/C (second compound 3.16 µM, first compound 3.16 µM) of 37.2% and a viability, T/C (second compound 3.16 µM, first compound 10 µM) of 28.4%. For the same compound, the viability, T/C [11] was 35.8%, the viability, T/C (second compound 10 µM, first compound 0.1 µM) was 39% and the viability, T/C [12] was 38.9%. It also gave a viability, T/C (second compound 10 µM, first compound 1 µM) of 34.2%, a viability, T/C (second compound 10 µM, first compound 3.16 µM) of 30.3% and a viability, T/C (second compound 10 µM, first compound 10 µM) of 22.8%.
`CC[C@@]1(O)C(=O)OCc2c1cc1n(c2=O)Cc2cc3c(CN(C)C)c(O)ccc3nc2-1` + Cc1cnc(CNC(=O)c2c(=O)c3ccc(N4CCCN(C)CC4)nc3n3c2sc2ccccc23)cn1 gave an IC50 (second compound 0.0316 µM) of 28.5 nM, an IC50 (second compound 0.1 µM) of 16 nM and an IC50 (second compound 0.316 µM) of less than 0.999 nM. It also gave an IC50 (second compound 1 µM) of less than 0.999 nM, an IC50 (second compound 3.16 µM) of less than 0.999 nM and an IC50 (second compound 10 µM) of less than 0.999 nM. For the same compound, the viability, T/C [13] was 114%, the viability, T/C [14] was 103% and the viability, T/C [15] was 107%. It also gave a viability, T/C [1] of 44.1%, a viability, T/C [16] of 17.8% and a viability, T/C [2] of 11.3%. For the same compound, the viability, T/C [17] was 76.2%, the viability, T/C [18] was 64.3% and the viability, T/C [19] was 64.3%. For the same compound, the viability, T/C [3] was 31.4%, the viability, T/C [20] was 20.5% and the viability, T/C [4] was 11.8%. For the same compound, the viability, T/C [21] was 48.6%, the viability, T/C [22] was 42.5% and the viability, T/C [23] was 45.3%. It also gave a viability, T/C [5] of 27.6%, a viability, T/C [24] of 17% and a viability, T/C [6] of 13.9%. It also gave a viability, T/C [25] of 39.8%, a viability, T/C [26] of 38.9% and a viability, T/C [27] of 29.9%. The viability, T/C [7] was 29.1%, the viability, T/C [28] was 19.1% and the viability, T/C [8] was 13%. It also gave a viability, T/C [29] of 30.5%, a viability, T/C [30] of 29.8% and a viability, T/C [31] of 30.3%. The viability, T/C [9] was 25.4%, the viability, T/C [32] was 17.6% and the viability, T/C [10] was 14.7%. It also gave a viability, T/C [33] of 23.6%, a viability, T/C [34] of 30.3% and a viability, T/C [35] of 30.8%. For the same compound, the viability, T/C [11] was 23.9%, the viability, T/C [36] was 18.7% and the viability, T/C [12] was 15.6%.
Work on `CCc1c2c(nc3ccc(O)cc13)-c1cc3c(c(=O)n1C2)COC(=O)[C@]3(O)CC` + Cc1cnc(CNC(=O)c2c(=O)c3ccc(N4CCCN(C)CC4)nc3n3c2sc2ccccc23)cn1 yielded an IC50 (second compound 0.0316 µM) of less than 0.999 nM, an IC50 (second compound 0.1 µM) of less than 0.999 nM and an IC50 (second compound 0.316 µM) of less than 0.999 nM. For the same compound, the IC50 (second compound 1 µM) was less than 0.999 nM, the IC50 (second compound 3.16 µM) was less than 0.999 nM and the IC50 (second compound 10 µM) was less than 0.999 nM. For the same compound, the viability, T/C [13] was 33.5%, the viability, T/C [14] was 15.6% and the viability, T/C [15] was 15.1%. For the same compound, the viability, T/C [1] was 13.5%, the viability, T/C [16] was 5.18% and the viability, T/C [2] was 0.45%. For the same compound, the viability, T/C [17] was 26.9%, the viability, T/C [18] was 14.8% and the viability, T/C [19] was 15.6%. It also gave a viability, T/C [3] of 15.2%, a viability, T/C [20] of 5.86% and a viability, T/C [4] of 0.41%. It also gave a viability, T/C [21] of 26.3%, a viability, T/C [22] of 17.1% and a viability, T/C [23] of 14.8%. It also gave a viability, T/C [5] of 11.9%, a viability, T/C [24] of 4.76% and a viability, T/C [6] of 0.14%. The viability, T/C [25] was 22%, the viability, T/C [26] was 15.4% and the viability, T/C [27] was 14.2%. For the same compound, the viability, T/C [7] was 10.1%, the viability, T/C [28] was 4.05% and the viability, T/C [8] was 0.08%. The viability, T/C [29] was 19.4%, the viability, T/C [30] was 15.9% and the viability, T/C [31] was 14.4%. The viability, T/C [9] was 9.47%, the viability, T/C [32] was 0.08% and the viability, T/C [10] was 0.1%. For the same compound, the viability, T/C [33] was 18.4%, the viability, T/C [34] was 16% and the viability, T/C [35] was 14.6%. It also gave a viability, T/C [11] of 7.32%, a viability, T/C [36] of 0.15% and a viability, T/C [12] of 0.15%.
`Cn1ncnc1[C@H]1c2n[nH]c(=O)c3cc(F)cc(c23)N[C@@H]1c1ccc(F)cc1` + Cc1cnc(CNC(=O)c2c(=O)c3ccc(N4CCCN(C)CC4)nc3n3c2sc2ccccc23)cn1 was tested, and the IC50 (second compound 0.0316 µM) was greater than 316 nM, the IC50 (second compound 0.1 µM) was greater than 316 nM and the IC50 (second compound 0.316 µM) was 40.3 nM. For the same compound, the IC50 (second compound 1 µM) was less than 0.999 nM, the IC50 (second compound 3.16 µM) was less than 0.999 nM and the IC50 (second compound 10 µM) was less than 0.999 nM. It also gave a viability, T/C [13] of 100%, a viability, T/C [14] of 98.9% and a viability, T/C [15] of 107%. It also gave a viability, T/C [1] of 97.4%, a viability, T/C [16] of 75.6% and a viability, T/C [2] of 90.6%. For the same compound, the viability, T/C [17] was 98.7%, the viability, T/C [18] was 73.7% and the viability, T/C [19] was 72.2%. For the same compound, the viability, T/C [3] was 68.9%, the viability, T/C [20] was 55.7% and the viability, T/C [4] was 60.5%. For the same compound, the viability, T/C [21] was 55.8%, the viability, T/C [22] was 55.5% and the viability, T/C [23] was 49.4%. It also gave a viability, T/C [5] of 53.8%, a viability, T/C [24] of 46.6% and a viability, T/C [6] of 43%. It also gave a viability, T/C [25] of 39%, a viability, T/C [26] of 47.1% and a viability, T/C [27] of 44.3%. It also gave a viability, T/C [7] of 41.8%, a viability, T/C [28] of 41.4% and a viability, T/C [8] of 44.3%. The viability, T/C [29] was 35.9%, the viability, T/C [30] was 43.8% and the viability, T/C [31] was 34.2%. The viability, T/C [9] was 30.3%, the viability, T/C [32] was 34.2% and the viability, T/C [10] was 32.7%. It also gave a viability, T/C [33] of 29.1%, a viability, T/C [34] of 32.7% and a viability, T/C [35] of 33%. It also gave a viability, T/C [11] of 32.4%, a viability, T/C [36] of 36.2% and a viability, T/C [12] of 32.3%.

Reference: PubChem BioAssay AID2060485 (Molecular Pharmacology Branch, DTP, NCI, 2025)
